# Where two headings read alike, the source gives them in different places.
# Columns and labels:
# Type in all cases: cell-based, HIV-1
# [1] = system: Virus 1 (recombinant generated from plasma of Subject 1 by FPH or RVA); assay: MTT-reduction cell viability drug susceptibility assay, recombinant Virus 1 (FPH or RVA); details: for fold resistance: relative to WT (HXB2); for fold higher susceptibility when generated by RVA than when generated by FPH: virus 1
# Description: (§1) As previously discussed, recombinant virus produced by the method of the present invention may be used in drug sensitivity assays. A suitable drug sensitivity assay is described in Pauwels et al. (1988) and is an MTT-reduction colorimetric cell viability assay. Cells infected with the virus are plated into the wells of tissue culture plates and incubated with the anti-viral drug to be tested. After incubation, MTT (3-(4,5-dimethylthiazol-2-yl)-2,5diphenyltetrazolium bromide) is added to the cell culture. Only live cells produce the blue formazan product after incubation with MTT. This product is detectable by reading the optical absorbance at 540-590 nm, so the absorbance reading gives a measure of the cells which have been protected from the virus by the anti-viral drug. Viral drug resistance results in a decrease in surviving cells and a decrease in absorbance at 540-590 nm.
# (§2) In this experiment, plasma from three HIV-1 infected subjects experiencing virological failure on PI-containing therapy regimens was used as the basis for the FPH to generate recombinant virus. […] Virus from Subject 2 had L10I, M46I, I50V and a Lp1′F mutation at the p1/p6 protease cleavage site, all of which are mutations typical of high level APV resistance.
# (§3) The LTR was added to the nested products by PMR prior to transfection. The PMR reactions successfully added the LTR sequences to the nested products (FIG. 9). The first round RT-PCR reactions were also used as templates to generate products for RVA by cotransfection with pHXBΔCSPRTC. Triplicate PCR products were cotransfected into MT4 cells with the linearised plasmid pHXBTOPO1, in the case of the PMR products, and with linearised pHXBΔCSPRTC in for the RVA products. Viral cytopathic effect was observed and titratable virus was harvested in the supernatants. No virus was isolated from virus 2 using FPH and only one of the triplicate cultures from virus 3 yielded infectious virus. All of the RVA cultures produced virus.
# (§4) In order to determine whether the extra sequences in the FPH recombinants contain determinants of susceptibility, the recombinant viruses were tested against several drugs. Drug susceptibility was determined by the 3-(4,5dimethylthiazol-2-yl)-2,5-diphenyltetrazolium bromide (MTT)-reduction calorimetric cell viability assay described previously (Pauwels et al. 1988; Robinson et al., 2000). Changes in susceptibility were defined as fold increase in IC50 relative to WT (HXB2). Nucleotide sequences were determined using ABI 3700 capillary sequencers and Big Dye terminators. […] Virus 1 also gave a 2.2-fold (Table 3A) or 4-fold (Table 3B) higher susceptibility to IDV and 2.9-fold (Table 3A) or 3.2-fold higher susceptibility to APV when generated by RVA.
# [2] = system: Virus 2 (recombinant generated from plasma of Subject 2 by RVA); assay: MTT-reduction cell viability drug susceptibility assay, recombinant Virus 2 (RVA); details: Table 3A, Virus 2, method RVA; for fold resistance: relative to WT (HXB2)
# Description: as §1, §2, §3, §4
# [3] = system: Virus 3 (recombinant generated from plasma of Subject 3 by FPH or RVA); assay: MTT-reduction cell viability drug susceptibility assay, recombinant Virus 3 (FPH or RVA); details: for fold resistance: relative to WT (HXB2)
# Description: as §1, §2, §3, §4
# HXB2 = assay: MTT-reduction cell viability drug susceptibility assay, wild type HXB2 (Table 3A); details: for fold resistance: HXB2 wild type (reference)
# Description: as §1, §4
# [4] = system: Virus 3.1, 3.2, 3.3 (recombinants by FPH or RVA); assay: MTT-reduction cell viability drug susceptibility assay, viruses 3.1-3.3 (Table 3B); details: for fold resistance: Table 3B, relative to WT
# Description: as §1, §3, §4
# [5] = system: Virus 4.1, 4.2, 4.3 (recombinants by RVA); assay: MTT-reduction cell viability drug susceptibility assay, viruses 4.1-4.3 (Table 3B); details: for EC50: Human immunodeficiency virus 1, Table 3B; for fold resistance: Table 3B, relative to WT
# Description: as §1, §3, §4
# [6] = system: Virus 5.1 (FPH), 5.2 (RVA); assay: MTT-reduction cell viability drug susceptibility assay, viruses 5.1 and 5.2 (Table 3B); details: for EC50: Human immunodeficiency virus 1, Table 3B; for fold resistance: Table 3B, relative to WT
# Description: as §1, §3, §4
# [7] = system: WT (HXB2) generated by FPH or RVA; assay: MTT-reduction cell viability drug susceptibility assay, WT (Table 3B); details: for EC50: Human immunodeficiency virus 1, HXB2, Table 3B; for fold resistance: Table 3B
# Description: as §1, §4
compound,measurement,setting,value
"CC(C)(C)NC(=O)[C@@H]1CN(Cc2cccnc2)CCN1C[C@@H](O)C[C@@H](Cc1ccccc1)C(=O)N[C@H]1c2ccccc2C[C@H]1O [IDV, indinavir]",EC50,"[1]; Human immunodeficiency virus 1, Table 3A, Virus 1, method RVA, read-out: Drug EC50",0.0142 µM
same,EC50,"[1]; Human immunodeficiency virus 1, read-out: Drug EC50, Table 3A, Virus 1, method FPH",0.0312 µM
same,fold resistance,"[1]; Table 3A, Virus 1, method FPH",(1.1) fold
same,fold resistance,"[1]; Table 3A, Virus 1, method RVA",(0.48) fold
same,fold higher susceptibility when generated by RVA than when generated by FPH,[1]; Table 3A experiment,2.2 fold
same,fold higher susceptibility when generated by RVA than when generated by FPH,[1]; Table 3B experiment,4 fold
same,EC50,[2]; Human immunodeficiency virus 1,0.0187 µM
same,fold resistance,[2],(0.63) fold
same,EC50,"[3]; Human immunodeficiency virus 1, Table 3A, Virus 3, method FPH",1.25 µM
same,EC50,"[3]; Human immunodeficiency virus 1, Table 3A, Virus 3, method RVA",0.689 µM
same,fold resistance,"[3]; Table 3A, Virus 3, method FPH",(42) fold
same,fold resistance,"[3]; Table 3A, Virus 3, method RVA",(23) fold
same,fold resistance,HXB2,(1.0) fold
same,EC50,"HXB2; Human immunodeficiency virus 1, HXB2 wild type",0.0297 µM
same,EC50,"[4]; Human immunodeficiency virus 1, Table 3B, Virus 3.1, method FPH, read-out: Drug EC50",0.0601 µM
same,EC50,"[4]; Human immunodeficiency virus 1, Table 3B, Virus 3.2, method FPH, read-out: Drug EC50",0.0571 µM
same,EC50,"[4]; Human immunodeficiency virus 1, Table 3B, Virus 3.2, method RVA, read-out: Drug EC50",0.0165 µM
same,EC50,"[4]; Human immunodeficiency virus 1, Table 3B, Virus 3.3, method FPH, read-out: Drug EC50",0.0532 µM
same,EC50,"[4]; Human immunodeficiency virus 1, read-out: Drug EC50, Table 3B, Virus 3.1, method RVA",0.0116 µM
same,fold resistance,"[4]; Virus 3.1, method FPH",(2.0) fold
same,fold resistance,"[4]; Virus 3.1, method RVA",(−2.7) fold
same,fold resistance,"[4]; Virus 3.2, method FPH",(1.9) fold
same,fold resistance,"[4]; Virus 3.2, method RVA",(−1.9) fold
same,fold resistance,"[4]; Virus 3.3, method FPH",(1.7) fold
same,EC50,"[5]; Virus 4.1, method RVA",0.065 µM
same,EC50,"[5]; Virus 4.2, method RVA",0.0238 µM
same,EC50,"[5]; Virus 4.3, method RVA",0.0393 µM
same,fold resistance,"[5]; Virus 4.1, method RVA",(2.1) fold
same,fold resistance,"[5]; Virus 4.2, method RVA",(−1.3) fold
same,fold resistance,"[5]; Virus 4.3, method RVA",(1.3) fold
same,EC50,"[6]; Virus 5.1, method FPH",2.23 µM
same,EC50,"[6]; Virus 5.2, method RVA",1.52 µM
same,fold resistance,"[6]; Virus 5.1, method FPH",(72) fold
same,fold resistance,"[6]; Virus 5.2, method RVA",(49) fold
same,EC50,[7]; method FPH,0.0308 µM
same,EC50,[7]; method RVA,0.0312 µM
same,fold resistance,[7]; method FPH (reference),(1.0) fold
same,fold resistance,[7]; method RVA (reference),(1.0) fold
Cc1c(O)cccc1C(=O)N[C@@H](CSc1ccccc1)[C@H](O)CN1C[C@H]2CCCC[C@H]2C[C@H]1C(=O)NC(C)(C)C [NFV],EC50,"[1]; Table 3A, Virus 1, method FPH, read-out: Drug EC50",0.07 µM
same,fold resistance,"[1]; Table 3A, Virus 1, method FPH",(2.3) fold
same,EC50,"[1]; Table 3A, Virus 1, method RVA, read-out: Drug EC50",0.0269 µM
same,fold resistance,"[1]; Table 3A, Virus 1, method RVA",(0.90) fold
same,EC50,[2],0.0708 µM
same,fold resistance,[2],(2.4) fold
same,EC50,"[3]; Table 3A, Virus 3, method FPH",0.591 µM
same,fold resistance,"[3]; Table 3A, Virus 3, method FPH",(20) fold
same,EC50,"[3]; Table 3A, Virus 3, method RVA",0.39 µM
same,fold resistance,"[3]; Table 3A, Virus 3, method RVA",(13) fold
same,EC50,HXB2; HXB2 wild type,0.0299 µM
same,fold resistance,HXB2,(1.0) fold
